Measurements as given in US8846616B1, “Alpha-melanocyte stimulating hormone as topical anti-inflammatory agent for the treatment of allergic contact dermatitis and eczema” (Florida Agricultural and Mechanical University, priority 2009, dated 2014).

Legend:
CD3 = assay: Immunohistochemistry of ear tissue in the ACD model, CD3; type: in vivo, mouse; conditions: ear tissue after three days of treatment, 96 hours after DNFB challenge
Procedure: (§1) Mice examined in the allergic contact dermatitis model were euthanized 96 hours after challenge with DNFB, and the left and right ears were excised. Ears were fixed in alcoholic formalin and embedded in paraffin. Cross-sections were cut through the center of each ear anterior to posterior. Ears were stained using hematoxylin and eosin (H&E). Additionally, the inflammatory markers CD3 and ICAM-1 were stained using rat anti-mouse primary antibodies (0.2 μg/mL and 1.0 μg/mL, respectively) and detected with a mouse-absorbed goat anti-rat'horseradish peroxidase-conjugated secondary antibody (1.0 μg/mL). Endogenous peroxidase activity was blocked with H2O2 before antibody incubations and DAB exposure, and then the marker-stained slides were counterstained with Mayer's hematoxylin blued with dilute ammonium hydroxide. The sections of each ear were photographed at representative sites using a light microscope (Zeiss Axio Imager; Zeiss, Thornwood, N.Y.) with an attached digital camera (Axiocam MRc, Zeiss, Thornwood, N.Y.) operated by Zeiss AxioVision 4.6.
To assay inflammation, ear tissue of the mice was excised 96 hours after challenge with DNFB, fixed in formalin, and embedded in paraffin. […]

[1] = In vitro skin retention, Franz diffusion cells; type: in vitro ADME, rat; conditions: after 24 hours
Procedure: (§2) In order to determine if the penetration and retention of full-length α-MSH could be augmented in vitro by formulations containing compounds known to improve this process, we conducted in vitro studies with 36 different formulations of α-MSH. The α-MSH powder was weighed directly into a 2 mL graduated glass vial and dissolved in water. Measured volumes of the respective vehicles were dissolved in the solution to achieve the desired percentage (w/v) of α-MSH. Hairless rats were euthanized, skin from the dorsal surface was excised, and the adherent fat and subcutaneous tissue were removed. The skin was mounted on Franz diffusion cells with the stratum corneum facing the donor compartment. The volume of the donor and receptor cells was 2.0 and 5.0 mL, respectively.
For the retention studies, the donor cell was removed, and the excess formulation was removed from the surface of the skin by gently wiping with a cotton swab dipped in 50% ethanol. […] The α-MSH content of each sample was analyzed by HPLC. […]
(§3) Analysis of α-MSH in permeation and retention studies conducted in vitro with skin from hairless rats was performed using an HPLC system (Waters Corp, Milford, Mass.) operated by Millennium software. […] The α-MSH content in the samples was determined using the UV detector set at 230 nm, and the detection limit was determined to be 0.1 μg/mL. […]

[2] = In vitro skin permeation, Franz diffusion cells; type: in vitro ADME, rat
Procedure: as §2
Permeation of α-MSH in these formulations was measured by applying the formulation (200 μL) on the skin surface in the donor compartment, sealed with aluminum foil and Parafilm®. […] After 24 hours, the receptor compartment was sampled, and α-MSH content was analyzed by HPLC.
as §3

[3] = tested on: DNFB-induced allergic contact dermatitis; assay: Histology (H&E) of ear tissue in the ACD model; type: in vivo, mouse; set-up: key to score of relative inflammation (infiltrate grade): (1+) representing few lymphocytes and eosinophils above baseline levels that are scattered around blood vessels; (2+) representing increased perivascular infiltrate; (3+) representing intense perivascular infiltrate extending slightly into the interstitial collagen between vessels within the papillary dermis; (4+) representing intense diffuse lymphocytic infiltrate throughout the papillary dermis; conditions: 96 hours after DNFB challenge
Procedure: as §1
Mice used in the allergic contact dermatitis model were euthanized 96 hours after challenge with DNFB (72 hours after initiation of topical treatment), and the left and right ears were excised, fixed with formalin, and embedded in paraffin. Cross-sections of the middle of each ear (same position) were cut at a thickness of 4 μm and stained with hematoxylin and eosin (H&E). […] Microscopic measurements of thickness were made at 5 equidistant points on each of the photographed H&E sections. All values are expressed as mean±SD. All differences were statistically significant as determined by ANOVA for pair-wise comparison (P<0.05).
Overall, the allergic contact dermatitis hypersensitivity response developed intense perivascular lymphoid infiltrate extending into the papillary dermis with little or no change in the epidermis at 96 hours following challenge. In all samples generally >90% of the inflammatory infiltrate consisted of lymphocytes and <10% consisted of eosinophils. […]

[4] = tested on: DNFB-induced allergic contact dermatitis; assay: Murine allergic contact dermatitis (ACD) model, ear swelling by micrometer; type: in vivo, mouse; conditions: concentration of 0.25% α-MSH versus 0.125% and 0.5%; topical formulations including MF21
Procedure: Allergic contact dermatitis was induced as previously described (8, 16). Mice were sensitized on day 0 by applying 25 μL of 0.5% DNFB in 4:1 acetone/olive oil on the shaved abdomen. Mice were challenged on day 5 with a single topical application of 15 μL of 0.2% DNFB in 4:1 acetone/olive oil on the right ear in order to induce an ACD response. The left ears were treated with a single topical application of the matched vehicle alone (4:1 acetone/olive oil) to serve as an internal control for the experiments. Beginning on day 6 (24 hours after challenge), the right ears were treated with 15 μL of topically applied α-MSH formulations or 0.5 mM dexamethasone solution and the left ears of the same mice were topically applied with the corresponding matched vehicle. […] Commercial ointment products were topically applied 20 μL per treatment as measured with a syringe and spread evenly with an applicator stick. […] The ACD response was determined by the degree of ear swelling of the hapten-exposed ear (right) compared to that of the matched vehicle-treated contra-lateral ear (left) before DNFB challenge and at 24, 48, 72, and 96 hours after challenge, as measured with a micrometer (7309, Mitutoyo, Tokyo, Japan). Percent change was determined based on 100% thickness 24 hours after challenge. […]

Substance: Ac-Ser-Tyr-Ser-Met-Glu-His-Phe-Arg-Trp-Gly-Lys-Pro-Val [α-MSH]
- expression of the CD3 marker antigen in the lymphocytic infiltrate (CD3): greatly reduced
- α-MSH retained per gram of skin (epidermis) ([1]; in aqueous TRANSCUTOL, LABRASOL, or propylene glycol): 0.4-0.5 mg per gram of skin
- α-MSH retained per gram of skin (epidermis) ([1]; in aqueous ethanol): 1.8 mg per gram of skin
- permeation through the skin barrier ([2]; aqueous α-MSH in the absence of TRANSCUTOL and NMP, after 24 hours): did not permeate through the skin barrier at all
- α-MSH penetrated through 1.0 cm^2 of skin ([2]; vehicles ethanol, propylene glycol, TRANSCUTOL and LABRASOL (all four), hairless rat skin in vitro): 6.5 to 7.0 µg
- score of relative inflammation (infiltrate grade) [3]: 1+
- inflammatory (lymphoid) infiltrate in H&E sections ([3]; three days of treatment twice per day): relatively low retention of inflammatory infiltrate
- ear swelling in H&E sections ([3]; three days of treatment twice per day, FIG. 4): complete alleviation of swelling down to slightly below baseline thickness
- reduction in ear swelling, α-MSH dose response [4]: optimal reduction in ear swelling
